The source of these data is patent US10473574B2, “Assembly for assessing drug permeability with adjustable biomimetic properties” (Syddansk Universitet, priority 2014, dated 2019).

SMILES strings stand for the structures.

One data set is described as follows: in vitro. The protocol: A sheet of cellulose hydrate was prewashed in demineralized water. The sheet was put on a flat surface and sprayed with a 1% (M/M) solution of egg yolk lecithin (E-80, Lipoid GmbH, Ludwigshafen, Germany) in ethanol. […] Once the organic solvent was evaporated, two coated sheets were placed one upon the other, sandwiching the phospholipids.
Frantz cells with a permeation surface of 1 cm^2, a maximum volume in the upper compartment of 1.8 mL and a fixed volume in the bottom compartment of 8 mL were used.
The barrier was placed in between of the donor and the acceptor chamber, and a permeability experiment was performed at 25° C. […]
8 mL of phosphate buffer solution was placed into the lower compartment. The barrier was placed, and at time zero (start of the experiment) 1.5 mL of a 10 mM phosphate buffer solution of calcein was placed in the upper compartment. Every 60 minutes, 0.2 mL of the solution in the lower compartment were withdrawn and calcein concentration quantified by fluorescence spectroscopy. The removed volume was replaced with an equivalent amount of fresh buffer.
For all permeability studies, Franz diffusion cells with a surface area of 1 cm^2, upper chamber nominal volume of 2 mL and lower chamber volume of 8 mL were employed. The donor phase (upper chamber) was filled with 1.5 mL hydrophilic marker calcein (5 mM) and different surfactants and solvents, whereas the acceptor compartment (lower chamber) was filled with 8 mL PBS (7.4±0.05). The barrier was placed between the donor and acceptor compartment and the flux (3) of calcein was measured over time. The permeability studies were carried out over a 5 hours period, and samples of 200 μL were withdrawn from the acceptor chamber every 30 min for the first 2 hours and then every 60 min. The withdrawn sample volume was replaced with an equal amount of fresh PBS at each time point. […]

The nature of data set [1]: Permeability of calcein through the empty barrier support (no lipid layer). The data set is classed as in vitro ADME. Particulars: pH 7.4, calcein 5 mM donor, PBS acceptor. An excerpt: It is visible that the permeation of calcein through the empty barrier support is much faster. Specifically, the permeability of calcein is approx. 10 times higher as compared to the barrier of the present invention.

A word on the Papp: it is the rate of passage across a membrane or cell layer, normalised by area and donor concentration.

Regarding `Cn1c(=O)c2c(ncn2C)n(C)c1=O` [caffeine], the “permeability with FeSSIF as acceptor media versus other acceptor media” value in the data set “in vitro” is on record as “unchanged”.

`O=C(O)CN(CC(=O)O)Cc1cc2c(cc1O)Oc1cc(O)c(CN(CC(=O)O)CC(=O)O)cc1C21OC(=O)c2ccccc21` [calcein]: in “in vitro”, the “change of permeability with Polysorbat 80” value is “not increased, but decreased” and the “influence of lipid composition of the barrier on permeability” value (from here on “influence”) was “strong influence”. Further, in the data set “in vitro” (5 h, 5 mM, pH 7.4), the “increase of permeability with 5% Cremophor relative to PBS” value was approximately 2 fold. In addition, the apparent permeability (Papp) at 5 h, 5 mM in the data set “in vitro” (pH 7.4, Papp in PBS) amounted to 2.7 ± 0.5 ×10⁻⁶ cm/s. The compound also gave an apparent permeability (Papp) in the data set “in vitro” (pH 7.4, permeability coefficient (P)) of 1.2 ± 0.1 ×10⁻⁶ cm/s. Also, the Papp at 5 h, 5 mM in data set [1] is 16.5 ± 1 ×10⁻⁶ cm/s.

On to `CC(C)Cc1ccc(C(C)C(=O)O)cc1` (stereo not drawn) [ibuprofen], for which the “influence” value in “in vitro” was “strong influence”.

On to `CC(C)(C)NCC(O)COc1cccc2c1CC(O)C(O)C2` (stereo not drawn) [nadolol], for which, in the data set “in vitro”, the “influence” value is “strong influence”.
